In US11820832B2, “Bispecific HER2 and CD3 binding molecules” (MEMORIAL SLOAN KETTERING CANCER CENTER, priority 2014, dated 2023):

Assays:
[1] = system: HeLa cervical carcinoma cells; experiment: Cell proliferation assay (WST-8); format: cell-based, human; conditions: 10 nM kinase inhibitors, 10 μg/mL antibodies
Experimental: (§1) Cell proliferation was determined using an ELISA plate reader and the WST-8 kit (Dojindo technologies) following the manufacturer's instructions and using the formula: % survival rate=(Sample-Background)/(Negative control-Background). Lapatinib (MSKCC pharmacy) was ground using a mortar and pestle and suspended in DMSO as previously described. To determine statistical significance, the results were analyzed using one-way ANOVA using Prism 6.0.
(§2) For cell proliferation assays, 5,000 tumor cells were plated using RPMI-1640 supplemented with 10% FBS in a 96 well plate for 36 hours before being treated with lapatinib or the antibodies at the specified concentrations. Cell proliferation was determined using an ELISA plate reader and the WST-8 kit (Dojindo technologies) following the manufacturer's instructions and using the formula: % survival rate=(Sample-Background)/(Negative control-Background). Lapatinib (Memorial Sloan Kettering Cancer Center pharmacy) was ground using a mortar and pestle and suspended in DMSO as previously described (Chen et al., 2012, Molecular cancer therapeutics 11:660-669). To determine statistical significance, the results were analyzed using one-way ANOVA using Prism 6.0.
(§3) For tumor cell proliferation, 5,000 tumor cells were plated using RPMI-1640 supplemented with 10% fetal bovine serum (“FBS”) in a 96 well plate for 36 hours before being treated with—kinase inhibitors or the antibodies at the specified concentration. Cell proliferation was determined using the cell counting WST-8 kit (Dojindo technologies) following the manufacturer's instructions and using the formula: % survival rate=(Sample-Background)/(Negative control-Background). Lapatinib was ground using a mortar and pestle and suspended in DMSO as previously described (Chen et al., Molecular cancer therapeutics 2012; 11:660-9). To determine statistical significance, the results were analyzed using one-way ANOVA using Prism 6.0.

SCCHN cell line PCI-30 = experiment: Cell proliferation assay (WST-8); format: cell-based, human; conditions: 10 nM kinase inhibitors, 10 μg/mL antibodies
Experimental: as §1, §2, §3

U2OS osteosarcoma cells = experiment: Cell proliferation assay (WST-8); format: cell-based, human; conditions: 10 nM kinase inhibitors, 10 μg/mL antibodies
Experimental: as §1, §2, §3

[2] = system: HER2(+) SCCHN cell line PCI-13; experiment: Blocking of HER2-BsAb T-cell cytotoxicity by trastuzumab or huOKT3; format: cell-based, human; conditions: 0.1 μg/mL HER2-BsAb with 10 μg/mL blocking antibody
Experimental: (§4) Cell cytotoxicity was assayed by ^51Cr release as previously described (Xu et al., Cancer immunology research 2015; 3:266-77), and EC50 was calculated using SigmaPlot software. Effector PBMC cells were purified from buffy coats purchased from the New York Blood Center. ATCs were first purified from human PBMC using Pan T cell isolation kit, and then activated and expanded for approximately 14 days with CD3/CD28 Dynabeads (Invitrogen) according to manufacturer's protocol.

[3] = system: HCC1954 breast cancer xenografts; experiment: Xenograft, subcutaneous tumor plus intravenous effector cells; format: in vivo, DKO mice; conditions: s.c. HCC1954; for tumor volume changes, PD1/PDL1 blockade resistant model: i.v. PBMC 7.5×10^6 once per week for 2 weeks, 100 μg each twice per week for 4 weeks
Description: For in vivo therapy studies, BALB-Rag2-/−IL-2R-γc-KO (“DKO”) mice (derived from colony of Dr. Mamoru Ito, CIEA, Kawasaki, Japan; see, e.g., Koo et al., 2009, Expert Rev Vaccines 8:113-20 and Andrade et al., 2011, Arthritis Rheum 63:2764-73) were used. […] Subcutaneous xenografts were created with 5×10^6 cells suspended in Matrigel (Corning Corp, Tewksbury Mass.) and implanted in the flank of DKO mice. Effector peripheral blood mononuclear cell (PBMC) cells were purified from buffy coats purchased from the New York Blood Center. Prior to every experimental procedure, PBMCs were analyzed for their percentage of CD3, CD4, CD8 and CD56 cells to ensure consistency. […] Tumor size was measured using (1) hand-held TM900 scanner (Pieira, Brussels, BE); (2) Calipers; or (3) bioluminescence. Bioluminescence imaging was conducted using the Xenogen In Vivo Imaging System (IVIS) 200 (Caliper LifeSciences). Briefly, mice were injected intravenously with 0.1 mL solution of D-luciferin (Gold Biotechnology; 30 mg/mL stock in PBS). Images were collected 1 to 2 minutes after injection using the following parameters: a 10- to 60-second exposure time, medium binning, and an 8 f/stop. Bioluminescence image analysis was performed using Living Image 2.6 (Caliper LifeSciences).
For in vivo therapy studies, BALB-Rag2-/−IL-2R-γc-KO (DKO) mice (derived from colony of Dr. Mamoru Ito, CIEA, Kawasaki, Japan)(Koo et al., Expert Rev Vaccines 2009; 8:113-20; Andrade et al., Arthritis Rheum 2011; 63:2764-73) were used. […] Effector PBMC cells and ATCs were prepared as described above. Prior to every experimental procedure, PBMCs and ATCs were analyzed by FACS for their percentage of CD3, CD4, CD8 and CD56 cells to ensure consistency. […] Tumor size was measured using 1) hand-held TM900 scanner (Pieira, Brussels, BE), 2) Calipers, or 3) Bioluminescence. […]

[4] = system: naïve T cells with or without NCI-N87 tumor cells; experiment: Cytokine release assay with naive T cells; format: cell-based, human; conditions: 16.7 nM antibody, 24 hours
Experimental: Cytokine release was assayed as previously described (Ahmed et al., Oncolmmunology 2015; 4:e989776), using naïve T cells prepared as described above. T cells (200,000/well) were cultured with or without NCI-N87 tumor cells (10,000/well) for 24 hours before supernatants being harvested for ELISA-based cytokine assay.

naïve T cells = experiment: T cell proliferation assay (WST-8); format: cell-based, human; conditions: 67 nM antibody, absence of tumor targets, 6 days
Experimental: For T cell proliferation, naïve T cells were purified from human PBMC using Pan T cell isolation kit (Miltenyi Biotec). 2×10^5 purified T cells were mixed with different antibodies in 96-well cell culture plate to a final volume of 250 μl/well. T cells were cultured and maintained in RPMI-1640 supplemented with 10% FBS in 37° C. for 6 days. T cell proliferation was quantitated using the WST-8 kit as described above.

HER2-positive cells = experiment: Blocking of HER2-BsAb induced T cell cytotoxicity; format: cell-based, human; conditions: HER2-positive cells pre-incubated with blocking antibody
Experimental: (§5) The ^51Cr release assay was performed with effector T cells cultured in vitro in the presence of anti-CD3 and anti-CD28 for about 14 days. […] 5000 target cells/well were mixed with 50,000 effector cells (E:T=10:1) and BsAb antibodies in 96-well polystyrene round-bottom plates (BD Biosciences) to a final volume of 250 μl/well. The plates were incubated at 37° C. for 4 h. […] Percentage of specific release was calculated using the formula: (experimental cpm−background cpm)/(total cpm−background cpm)×100%, where cpm represented counts per minute of ^51Cr released. […] EC50 was calculated using SigmaPlot software.

[5] = system: HeLa cervical cancer cells; experiment: HER2-BsAb redirected T cell cytotoxicity, 51Cr release assay; format: cell-based, human; conditions: pretreatment with lapatinib
Experimental: as §5, §4

[6] = system: trastuzumab-sensitive breast carcinoma cell line SKBR3; experiment: Cell proliferation assay (WST-8); format: cell-based, human; conditions: lapatinib 10 nM, 72 hours
Experimental: as §1, §2, §3

CD3 = CD3 (Homo sapiens, UniProt P07766); experiment: Binding affinity analysis by Biacore (Surface Plasmon Resonance); conditions: antigen CD3, Biacore
Experimental: Binding assays were performed by Surface Plasmon Resonance using Biacore T100 similar as described in Okazaki et al., 2004, J Mol Biol; 336(5): 1239-1249.

CD3, sequence (P07766 23-126 limits assumed): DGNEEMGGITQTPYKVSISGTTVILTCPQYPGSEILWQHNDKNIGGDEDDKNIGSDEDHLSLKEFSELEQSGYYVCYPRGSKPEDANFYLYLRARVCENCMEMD

CCOc1cc2ncc(C#N)c(Nc3ccc(OCc4ccccn4)c(Cl)c3)c2cc1NC(=O)/C=C/CN(C)C [neratinib]
sensitivity of cells in proliferation assay [1]: pan-resistant
sensitivity of cells in proliferation assay (SCCHN cell line PCI-30): resistant
sensitivity of cells in proliferation assay (U2OS osteosarcoma cells): minimal sensitivity

huOKT3: humanized OKT3 anti-CD3 IgG1, same variable sequences as in huOKT3 scFv
blocking of HER2-BsAb mediated T-cell cytotoxicity [2]: prevented
tumor growth ([3]; i.v. PBMC once a week for 3 weeks, i.v. antibody twice a week for 3 weeks): only modest effects
cytokine release in the absence of tumor targets [4]: substantially more cytokines
T cell proliferation (naïve T cells): robust T cell proliferation
blocking of the ability of HER2-BsAb to induce T cell cytotoxicity (HER2-positive cells): blocked

Atezolizumab
tumor volume changes, PD1/PDL1 blockade resistant model [3]: no effect

huOKT3 Fab: monovalent Fab prepared from huOKT3 IgG1
cytokine release in the absence of tumor targets [4]: background cytokine release
T cell proliferation (naïve T cells): negligible effects

C#Cc1cccc(Nc2ncnc3cc(OCCOC)c(OCCOC)cc23)c1 [erlotinib]
sensitivity of cells in proliferation assay [1]: pan-resistant
sensitivity of cells in proliferation assay (SCCHN cell line PCI-30): resistant
sensitivity of cells in proliferation assay (U2OS osteosarcoma cells): minimal sensitivity

CS(=O)(=O)CCNCc1ccc(-c2ccc3ncnc(Nc4ccc(OCc5cccc(F)c5)c(Cl)c4)c3c2)o1 [lapatinib]
effect of pretreatment on HER2-BsAb mediated cytotoxicity [5]: increased sensitivity
sensitivity of cells in proliferation assay [1]: pan-resistant
sensitivity of cells in proliferation assay (SCCHN cell line PCI-30): resistant
sensitivity of cells in proliferation assay (U2OS osteosarcoma cells): minimal sensitivity
inhibition of cell proliferation (positive control) [6]: strongest inhibition of cell proliferation

huOKT3 IgG1-aGlyco: parental aglycosylated huOKT3 IgG1
Kd (CD3): 64.6 nM
koff (CD3): 0.109 s⁻¹
kon (CD3): 1.68e+06 M⁻¹ s⁻¹

Pembrolizumab
tumor volume changes, PD1/PDL1 blockade resistant model [3]: no effect
